The values below come from BindingDB's records for patent US10669227 (THE RESEARCH FOUNDATION OF STATE UNIVERSITY OF NEW YORK, 2020).

The test has as its target 72 kDa type IV collagenase (Homo sapiens, UniProt P08253). Nature of the test: Inhibition of MMPs. From the text: However, it should be noted that excessive inhibition of MMP activity may not be desirable therapeutically because a minimal, or basal, level of MMPs may be necessary for optimal defense of the host.

Sequence of 72 kDa type IV collagenase (P08253 whole entry): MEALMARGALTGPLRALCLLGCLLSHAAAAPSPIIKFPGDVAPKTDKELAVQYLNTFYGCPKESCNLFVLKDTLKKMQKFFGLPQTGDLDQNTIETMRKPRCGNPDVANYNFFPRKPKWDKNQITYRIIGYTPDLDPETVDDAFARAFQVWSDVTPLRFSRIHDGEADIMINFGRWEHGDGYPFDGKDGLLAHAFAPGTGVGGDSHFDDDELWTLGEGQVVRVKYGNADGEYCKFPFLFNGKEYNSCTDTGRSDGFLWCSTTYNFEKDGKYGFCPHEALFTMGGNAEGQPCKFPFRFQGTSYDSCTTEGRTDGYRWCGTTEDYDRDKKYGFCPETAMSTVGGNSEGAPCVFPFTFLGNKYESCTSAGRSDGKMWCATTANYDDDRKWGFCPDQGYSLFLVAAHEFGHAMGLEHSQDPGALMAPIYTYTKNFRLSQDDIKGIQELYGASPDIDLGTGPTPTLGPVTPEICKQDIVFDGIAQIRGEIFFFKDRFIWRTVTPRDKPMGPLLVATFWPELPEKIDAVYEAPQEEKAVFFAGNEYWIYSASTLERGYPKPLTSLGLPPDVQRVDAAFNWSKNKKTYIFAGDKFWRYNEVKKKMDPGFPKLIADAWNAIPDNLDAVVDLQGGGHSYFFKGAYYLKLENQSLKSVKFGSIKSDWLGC

In turn, `COc1cc(/C=C/C(=O)C(C(=O)/C=C/c2ccc(O)c(CO)c2)C(=O)Nc2ccccc2)ccc1O` (stereo unspecified) [US10669227, Compound 6] showed an IC50 of 85 µM.

In general, IC50 refers to the concentration needed to halve the response being measured.
